In PubChem BioAssay (NCI):
Values joined by “and” are separate entries in the source; they are usually repeats but may differ in a detail not shown here. Equal entries are not always repeated.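 Results reflect a 48-hour exposure of cells in 96-well plates to compound at five concentrations. GI50: concentration for 50% inhibition of growth. TGI denotes the concentration required for complete inhibition of growth.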

Assays:
Assay in all cases: growth of human tumour cells (NCI), 48 h
UO-31 renal = system: UO-31 renal
U251 CNS = system: U251 CNS
M19-MEL melanoma = system: M19-MEL melanoma
SN12C renal = system: SN12C renal
MALME-3M melanoma = system: MALME-3M melanoma
TK-10 renal = system: TK-10 renal
SNB-19 CNS = system: SNB-19 CNS
LXFL 529 NSCLC = system: LXFL 529 NSCLC
CAKI-1 renal = system: CAKI-1 renal
BT-549 breast = system: BT-549 breast

SMILES	TGI (UO-31 renal)	TGI (U251 CNS)	TGI (M19-MEL melanoma) [µM]	TGI (SN12C renal)	TGI (MALME-3M melanoma) [µM]	TGI (TK-10 renal)	TGI (SNB-19 CNS) [µM]	TGI (LXFL 529 NSCLC) [µM]	TGI (CAKI-1 renal) [µM]	GI50 (UO-31 renal) [µM]	GI50 (CAKI-1 renal) [µM]	GI50 (U251 CNS) [µM]	GI50 (BT-549 breast) [µM]	TGI (BT-549 breast) [µM]	GI50 (SN12C renal) [µM]	GI50 (MALME-3M melanoma) [µM]	GI50 (TK-10 renal) [µM]	GI50 (SNB-19 CNS) [µM]
CN1C(=O)CC2(C)c3cc(C=O)ccc3N(C)C12 (configuration not stated)	> 100 µM	> 100 µM	> 100	> 100 µM	> 100	> 100 µM	> 100	> 100	–	–	–	–	–	–	–	–	–	–
COC(=O)C1=C(C(=O)OC)N(C(C)C)[C@H]2C(C(=O)OC)=C(C(=O)OC)N(C(C)C)[C@@H]12	> 100 µM	> 100 µM	> 100	> 100 µM	> 100	> 100 µM	> 100	> 100	> 100	–	–	–	–	–	–	–	–	–
O=C1Cc2ccccc2CCc2ccccc21	> 100 µM	> 100 µM	> 100	> 100 µM	> 100	> 100 µM	> 100	> 100	> 100	–	–	–	–	–	–	–	–	–
CCCC/C=C1\CCC(CN2CCCC2)C1=O (configuration not stated)	32.3 µM	19.6 µM	33.5	32 µM	33.1	6.3 µM	48.9	3.21	–	–	–	–	–	–	–	–	–	–
CC(=O)OC1Oc2cc(C)c(C)cc2-c2oc(=O)c(-c3ccccc3)cc21 (configuration not stated)	35.9 µM	58.8 µM	–	> 100 µM	> 34.7	> 44.9 µM	28.7	–	> 54.1	0.499	0.525	0.44	7.34	> 31.9	0.487	0.407	1.14	0.496
CCn1c(-c2nonc2N)nc2c(C#CC(C)(C)O)ncc(OC[C@@H]3CCCN3)c21	> 25 µM	> 22 µM	–	> 25 µM	> 25	> 21.8 µM	> 25	–	> 25	13.4	> 25	3.03	4.77	> 22.8	5.26	> 15.3	1.83	4.28
O=C(Nc1nc2ccc(F)cc2s1)c1cccnc1Nc1ccc(Cl)cc1Cl	> 24.4 µM	12 µM	–	13.7 µM	12.1	19.1 µM	14.7	–	8.71	2.21	1.91	2.92	2.97	17.5	2.65	2.19	3.53	3.22
COc1cccc(C2CC(=O)Nc3cc4c(cc32)CCC4)c1OC (configuration not stated)	38.7 µM	19.3 µM	–	34.8 µM	36	> 100 µM	> 100	–	56.2	7.18	3.36	4.71	3.57	16.7	5.4	5.98	12.4	8.66
N=C(N)SCC(=O)O	> 100 µM	> 100 µM	–	> 100 µM	> 100	> 100 µM	> 100	–	> 100	–	–	–	–	> 100	–	–	–	–
COc1ccc(CNC(=O)c2ccc(-c3cc(-c4nnc(C)o4)ccc3C)cc2)cc1	> 25 µM	> 25 µM	–	> 25 µM	> 25	> 25 µM	> 25	–	> 25	6.03	19.5	> 25	13.3	> 25	> 25	5.37	> 25	> 22.8
C(/C=C/N1CCCC1)=C\c1nc(N2CCCC2)c2ccccc2n1	29.2 µM	–	32.2	29 µM	33	> 100 µM	36.3	28	35.3	–	–	–	–	–	–	–	–	–
CCOC(=O)c1cc(C(=O)O)c(=O)n2c1[nH]c1ccccc12	87.7 µM	> 100 µM	> 100	> 100 µM	> 100	> 100 µM	> 100	> 100	> 100	–	–	–	–	–	–	–	–	–
C=C[C@@]1(C)CC(=O)[C@]2(O)[C@@]3(C)[C@@H](O)CCC(C)(C)[C@@H]3[C@H](O)[C@@H](OC(C)=O)[C@@]2(C)O1	> 100 µM	> 100 µM	–	> 100 µM	> 100	> 100 µM	> 100	–	> 100	–	–	–	–	> 100	–	–	–	–
COc1cc(/C=C2\C(=O)Nc3ccc(Br)cc32)cc(OC)c1OC	> 100 µM	30 µM	–	> 100 µM	16.8	30.1 µM	> 100	–	> 44.1	6.73	1.85	7.19	1.28	19.3	> 93.8	0.606	4.65	29.8
C=C1C(=O)C23CC1CCC2C12CO[C@@]3(O)[C@@H](O)C1C(C)(C)C=CC2=O (some centres not stated)	4.2 µM and 20.4 µM	5.15 µM and 33.3 µM	1.72	3.87 µM and 4.05 µM	–	1.55 µM and 11.2 µM	–	–	4.13	8.37	–	16.7	–	–	2.03	6.11	4.51	20.4
COc1ccc(-c2nn(-c3cccc(Cl)c3)cc2/C=C2\C(=N)N(c3ccccc3)N=C2N)cc1	25.8 µM	35.2 µM	–	> 100 µM	46.1	> 95.8 µM	> 100	–	0.844	0.587	0.229	3	5.75	39.2	3.33	4.9	7.77	8.58
Cc1ccc(NCCNCC(O)CO)c2c(=O)c3ccccc3sc12 (configuration not stated)	2.48 µM	3.51 µM	–	3.19 µM	2.76	3.1 µM	3.23	–	3.38	1.12	1.64	1.67	2.47	10.5	1.32	1.37	1.51	1.52
